{"source": "ChEMBL document CHEMBL3124779", "about": "“Discovery of ABT-267, a pan-genotypic inhibitor of HCV NS5A” (J Med Chem, 2014)", "key": {"Hepatitis C virus [1]": {"test_system": "Hepatitis C virus", "assay": "Resistant ratio of EC50 for wild type HCV1b to EC50 for HCV1b harboring NS5A Y93H mutant infected in human HuH7 cells", "assay_type": "functional, Hepacivirus hominis, genotype 1b, Huh-7"}, "Hepatitis C virus [2]": {"test_system": "Hepatitis C virus", "assay": "Resistant ratio of EC50 for wild type HCV1a to EC50 for HCV1a harboring NS5A Y93N mutant infected in human HuH7 cells", "assay_type": "functional, Hepacivirus hominis, subtype 1a, Huh-7"}, "Hepatitis C virus [3]": {"test_system": "Hepatitis C virus", "assay": "Resistant ratio of EC50 for wild type HCV1a to EC50 for HCV1a harboring NS5A Y93H mutant infected in human HuH7 cells", "assay_type": "functional, Hepacivirus hominis, subtype 1a, Huh-7"}, "Hepatitis C virus [4]": {"test_system": "Hepatitis C virus", "assay": "Resistant ratio of EC50 for wild type HCV1a to EC50 for HCV1a harboring NS5A Y93C mutant infected in human HuH7 cells", "assay_type": "functional, Hepacivirus hominis, subtype 1a, Huh-7"}, "Hepatitis C virus [5]": {"test_system": "Hepatitis C virus", "assay": "Resistant ratio of EC50 for wild type HCV1a to EC50 for HCV1a harboring NS5A M28V mutant infected in human HuH7 cells", "assay_type": "functional, Hepacivirus hominis, subtype 1a, Huh-7"}, "Hepatitis C virus [6]": {"test_system": "Hepatitis C virus", "assay": "Antiviral activity against HCV1b harboring NS5A R30Q and Y93H mutant infected in human HuH7 cells assessed as inhibition of viral replication after 4 days by luciferase reporter gene assay", "assay_type": "functional, Hepacivirus hominis, genotype 1b, Huh-7"}, "Hepatitis C virus [7]": {"test_system": "Hepatitis C virus", "assay": "Antiviral activity against HCV1b harboring NS5A Y93H mutant infected in human HuH7 cells assessed as inhibition of viral replication after 4 days by luciferase reporter gene assay", "assay_type": "functional, Hepacivirus hominis, genotype 1b, Huh-7"}, "Hepatitis C virus [8]": {"test_system": "Hepatitis C virus", "assay": "Antiviral activity against HCV1a harboring NS5A Y93N mutant infected in human HuH7 cells assessed as inhibition of viral replication after 4 days by luciferase reporter gene assay", "assay_type": "functional, Hepacivirus hominis, subtype 1a, Huh-7"}, "Hepatitis C virus [9]": {"test_system": "Hepatitis C virus", "assay": "Antiviral activity against HCV1a harboring NS5A Y93C mutant infected in human HuH7 cells assessed as inhibition of viral replication after 4 days by luciferase reporter gene assay", "assay_type": "functional, Hepacivirus hominis, subtype 1a, Huh-7"}, "Hepatitis C virus [10]": {"test_system": "Hepatitis C virus", "assay": "Antiviral activity against HCV1a harboring NS5A H58D mutant infected in human HuH7 cells assessed as inhibition of viral replication after 4 days by luciferase reporter gene assay", "assay_type": "functional, Hepacivirus hominis, subtype 1a, Huh-7"}, "Hepatitis C virus [11]": {"test_system": "Hepatitis C virus", "assay": "Antiviral activity against HCV1a harboring NS5A Q30R mutant infected in human HuH7 cells assessed as inhibition of viral replication after 4 days by luciferase reporter gene assay", "assay_type": "functional, Hepacivirus hominis, subtype 1a, Huh-7"}, "Hepatitis C virus [12]": {"test_system": "Hepatitis C virus", "assay": "Antiviral activity against HCV1a harboring NS5A M28T mutant infected in human HuH7 cells assessed as inhibition of viral replication after 4 days by luciferase reporter gene assay", "assay_type": "functional, Hepacivirus hominis, subtype 1a, Huh-7"}, "Hepatitis C virus [13]": {"test_system": "Hepatitis C virus", "assay": "Antiviral activity against HCV2b infected in human HuH7 cells assessed as inhibition of viral replication after 4 days by luciferase reporter gene assay", "assay_type": "functional, organism-based, Hepacivirus hominis", "conditions": "genotype 2b, Huh-7, 96 h"}, "[14]": {"assay": "Oral bioavailability in monkey at 2.5 mg/kg", "assay_type": "ADME, organism-based, Macaca mulatta", "conditions": "rhesus monkey, in vivo"}, "[15]": {"assay": "Cmax in monkey at 2.5 mg/kg, po", "assay_type": "ADME, organism-based, Macaca mulatta", "design": "dose 2.5 mg/kg, route oral", "conditions": "rhesus monkey, in vivo"}, "[16]": {"assay": "Clearance in monkey at 1 mg/kg, iv", "assay_type": "ADME, organism-based, Macaca mulatta", "design": "dose 1 mg/kg, route intravenous", "conditions": "rhesus monkey, in vivo"}, "[17]": {"assay": "Cmax in dog at 2.5 mg/kg, po", "assay_type": "ADME, organism-based, Canis lupus familiaris", "design": "dose 2.5 mg/kg, route oral", "conditions": "in vivo"}, "[18]": {"assay": "Volume of distribution at steady state in dog at 1 mg/kg, iv", "assay_type": "ADME, organism-based, Canis lupus familiaris", "design": "dose 1 mg/kg, route intravenous", "conditions": "in vivo, read-out: Vdss"}, "[19]": {"assay": "Oral bioavailability in rat at 3 mg/kg", "assay_type": "ADME, organism-based", "conditions": "in vivo"}, "[20]": {"assay": "Volume of distribution at steady state in rat at 3 mg/kg, iv", "assay_type": "ADME, organism-based", "design": "dose 3 mg/kg, route intravenous", "conditions": "in vivo, read-out: Vdss"}, "[21]": {"assay": "Metabolic stability in human liver microsomes assessed as compound remaining after 30 mins", "assay_type": "ADME", "conditions": "read-out: Stability"}, "[22]": {"assay": "Kinetic solubility of the compound in 10 mM of phosphate buffer at pH 7.2 by CLND method", "assay_type": "physicochemical", "conditions": "read-out: Kinetic_solubility"}, "[23]": {"assay": "Lipophilicity, log D of the compound at pH 7.4 by HPLC analysis", "assay_type": "physicochemical", "conditions": "buffer"}, "Hepatitis C virus [24]": {"test_system": "Hepatitis C virus", "assay": "Ratio of EC50 for HCV1b Con1 infected in human HuH7 cells in presence of 40% human plasma to EC50 for HCV1b Con1 infected in human HuH7 cells in absence of 40% human plasma", "assay_type": "functional, Hepacivirus hominis, isolate Con1, Huh-7"}, "Hepatitis C virus [25]": {"test_system": "Hepatitis C virus", "assay": "Antiviral activity against HCV1b Con1 infected in human HuH7 cells assessed as inhibition of viral replication after 4 days by luciferase reporter gene assay in presence of 40% human plasma", "assay_type": "functional, organism-based, Hepacivirus hominis", "conditions": "isolate Con1, Huh-7, Plasma, 96 h"}, "Hepatitis C virus [26]": {"test_system": "Hepatitis C virus", "assay": "Antiviral activity against HCV1a H77 infected in human HuH7 cells assessed as inhibition of viral replication after 4 days by luciferase reporter gene assay in presence of 40% human plasma", "assay_type": "functional, organism-based, Hepacivirus hominis", "conditions": "genotype 1a H77, Huh-7, Plasma, 96 h"}, "Hepatitis C virus [27]": {"test_system": "Hepatitis C virus", "assay": "Antiviral activity against HCV1a H77 infected in human HuH7 cells assessed as inhibition of viral replication after 4 days by luciferase reporter gene assay", "assay_type": "functional, organism-based, Hepacivirus hominis", "conditions": "genotype 1a H77, Huh-7, 96 h"}, "Hepatitis C virus [28]": {"test_system": "Hepatitis C virus", "assay": "Antiviral activity against HCV1b Con1 infected in human HuH7 cells assessed as inhibition of viral replication after 4 days by luciferase reporter gene assay", "assay_type": "functional, organism-based, Hepacivirus hominis", "conditions": "isolate Con1, Huh-7, 96 h"}, "Homo sapiens [29]": {"species": "Homo sapiens", "assay": "Toxicity in HCV1 infected patient assessed as laboratory abnormalities at 5 to 200 mg qd for 3 days", "assay_type": "organism-based", "conditions": "in vivo, 72 h"}, "Homo sapiens [30]": {"species": "Homo sapiens", "assay": "Toxicity in HCV1 infected patient assessed as adverse event at 5 to 200 mg qd for 3 days", "assay_type": "organism-based", "conditions": "in vivo, 72 h"}, "[31]": {"assay": "Cmax in HCV1 infected patient at 5 to 200 mg qd for 3 days", "assay_type": "ADME, organism-based", "conditions": "human, in vivo"}}}
{"smiles": "COC(=O)N[C@H](C(=O)N1CCC[C@H]1C(=O)Nc1ccc([C@@H]2CC[C@@H](c3ccc(NC(=O)[C@@H]4CCCN4C(=O)[C@@H](NC(=O)OC)C(C)C)cc3)N2c2ccc(C(C)(C)C)cc2)cc1)C(C)C", "note": "[OMBITASVIR]", "values": [{"measurement": "Ratio EC50", "setting": "Hepatitis C virus [1]", "result": 77}, {"measurement": "Ratio EC50", "setting": "Hepatitis C virus [2]", "result": 66739}, {"measurement": "Ratio EC50", "setting": "Hepatitis C virus [3]", "result": 41382}, {"measurement": "Ratio EC50", "setting": "Hepatitis C virus [4]", "result": 1675}, {"measurement": "Ratio EC50", "setting": "Hepatitis C virus [5]", "result": 58}, {"measurement": "Efficacy", "setting": "Hepatitis C virus [6]", "result": 60, "unit": "%"}, {"measurement": "Efficacy", "setting": "Hepatitis C virus [7]", "result": 73, "unit": "%"}, {"measurement": "Efficacy", "setting": "Hepatitis C virus [8]", "result": 25, "unit": "%"}, {"measurement": "Efficacy", "setting": "Hepatitis C virus [9]", "result": 24, "unit": "%"}, {"measurement": "Efficacy", "setting": "Hepatitis C virus [10]", "result": 66, "unit": "%"}, {"measurement": "Efficacy", "setting": "Hepatitis C virus [11]", "result": 60, "unit": "%"}, {"measurement": "Efficacy", "setting": "Hepatitis C virus [12]", "result": 100, "unit": "%"}, {"measurement": "EC50", "setting": "Hepatitis C virus [13]", "result": 0.0043, "unit": "nM"}, {"measurement": "bioavailability", "setting": "[14]", "result": 35, "unit": "%"}, {"measurement": "Cmax", "setting": "[15]", "result": 290, "unit": "ng/mL"}, {"measurement": "clearance", "setting": "[16]", "result": 6.33, "unit": "mL/min/kg"}, {"measurement": "Cmax", "setting": "[17]", "result": 640, "unit": "ng/mL"}, {"measurement": "Vd", "setting": "[18]", "result": 1.8, "unit": "L/kg"}, {"measurement": "bioavailability", "setting": "[19]", "result": 6.2, "unit": "%"}, {"measurement": "Vd", "setting": "[20]", "result": 5.9, "unit": "L/kg"}, {"measurement": "remaining at 0.5 h", "setting": "[21]", "result": 60, "unit": "%"}, {"measurement": "solubility kinetic", "setting": "[22]", "result": 2.7, "unit": "µM"}, {"measurement": "logD", "setting": "[23]", "result": 5.4}, {"measurement": "Ratio EC50", "setting": "Hepatitis C virus [24]", "result": 11}, {"measurement": "EC50", "setting": "Hepatitis C virus [25]", "result": 0.056, "unit": "nM"}, {"measurement": "EC50", "setting": "Hepatitis C virus [26]", "result": 0.186, "unit": "nM"}, {"measurement": "EC50", "setting": "Hepatitis C virus [27]", "result": 0.014, "unit": "nM"}, {"measurement": "EC50", "setting": "Hepatitis C virus [28]", "result": 0.005, "unit": "nM"}, {"measurement": "Activity", "setting": "Homo sapiens [29]", "result": "Non-toxic"}, {"measurement": "Activity", "setting": "Homo sapiens [30]", "result": "Non-toxic"}, {"measurement": "Cmax", "setting": "[31]", "result": 5.7, "unit": "ng/mL"}]}
